# Reference: ChEMBL document CHEMBL4368915, “Synthesis and Biological Investigation of Phenothiazine-Based Benzhydroxamic Acids as Selective Histone Deacetylase 6 Inhibitors” (J Med Chem, 2019)
# Calls of active or inactive are those of the source. The calls are words filed in the database; no cut-off is given here.
# What was measured:
# [1] = target: T1, Protein deacetylase HDAC6 (Homo sapiens, UniProt Q9UBN7)
# T1 sequence (Q9UBN7 whole entry): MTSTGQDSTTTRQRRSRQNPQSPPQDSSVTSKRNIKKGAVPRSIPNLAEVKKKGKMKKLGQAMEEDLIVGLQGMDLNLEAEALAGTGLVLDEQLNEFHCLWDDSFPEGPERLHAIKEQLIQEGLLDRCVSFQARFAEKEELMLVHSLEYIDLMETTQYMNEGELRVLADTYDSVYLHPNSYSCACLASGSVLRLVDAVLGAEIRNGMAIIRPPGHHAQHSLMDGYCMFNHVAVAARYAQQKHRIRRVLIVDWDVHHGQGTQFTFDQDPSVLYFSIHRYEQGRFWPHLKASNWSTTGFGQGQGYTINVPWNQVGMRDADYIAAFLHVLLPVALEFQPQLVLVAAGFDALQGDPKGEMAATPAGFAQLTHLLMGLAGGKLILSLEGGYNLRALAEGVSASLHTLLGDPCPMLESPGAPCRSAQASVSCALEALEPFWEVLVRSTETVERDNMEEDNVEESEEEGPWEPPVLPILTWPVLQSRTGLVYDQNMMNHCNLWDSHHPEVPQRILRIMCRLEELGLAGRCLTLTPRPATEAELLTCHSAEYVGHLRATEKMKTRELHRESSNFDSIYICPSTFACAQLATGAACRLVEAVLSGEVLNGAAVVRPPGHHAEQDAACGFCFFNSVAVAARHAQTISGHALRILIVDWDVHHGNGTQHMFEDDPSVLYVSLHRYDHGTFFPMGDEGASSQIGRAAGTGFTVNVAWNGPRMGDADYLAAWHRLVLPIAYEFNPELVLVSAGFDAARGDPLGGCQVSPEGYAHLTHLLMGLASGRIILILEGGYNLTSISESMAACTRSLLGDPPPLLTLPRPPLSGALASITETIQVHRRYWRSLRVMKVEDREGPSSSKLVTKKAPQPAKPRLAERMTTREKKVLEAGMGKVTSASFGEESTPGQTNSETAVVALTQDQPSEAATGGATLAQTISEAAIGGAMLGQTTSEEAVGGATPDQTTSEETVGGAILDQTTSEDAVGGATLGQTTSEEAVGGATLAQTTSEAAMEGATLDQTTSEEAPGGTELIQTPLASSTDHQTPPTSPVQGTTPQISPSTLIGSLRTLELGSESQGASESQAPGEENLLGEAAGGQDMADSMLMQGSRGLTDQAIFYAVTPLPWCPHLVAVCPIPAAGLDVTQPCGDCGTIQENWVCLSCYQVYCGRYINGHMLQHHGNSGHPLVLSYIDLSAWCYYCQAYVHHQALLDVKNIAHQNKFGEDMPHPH
# [2] = target: T2, Histone deacetylase 8 (Homo sapiens) (UniProt Q9BY41); assay: Inhibition of recombinant human HDAC8 expressed in baculovirus expression system at 1 uM using fluorogenic Arg-His-Lys(Ac)-Lys(Ac) as substrate incubated for 90 mins by fluorescence assay
# T2 sequence (whole entry): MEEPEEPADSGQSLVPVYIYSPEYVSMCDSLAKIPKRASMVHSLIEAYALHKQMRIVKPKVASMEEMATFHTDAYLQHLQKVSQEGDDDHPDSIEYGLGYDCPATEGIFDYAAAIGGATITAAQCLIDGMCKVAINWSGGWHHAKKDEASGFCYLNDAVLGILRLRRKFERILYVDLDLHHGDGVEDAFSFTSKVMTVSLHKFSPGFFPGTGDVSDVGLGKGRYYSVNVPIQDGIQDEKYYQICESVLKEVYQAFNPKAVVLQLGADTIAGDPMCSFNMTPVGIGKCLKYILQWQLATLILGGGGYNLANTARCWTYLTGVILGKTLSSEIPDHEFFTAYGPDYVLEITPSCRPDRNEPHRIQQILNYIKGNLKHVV
# Histone deacetylase 1 = Histone deacetylase 1 (Homo sapiens, UniProt Q13547)
# T-24 [3] = assay: Synergistic potentiation of Bortezomib-induced antiproliferative activity against human T24 cells assessed as effect on cell index, at 1 uM incubated for 24 hrs by cell impedance based assay; type: functional
# Huh-7 = assay: Antiproliferative activity against human HuH7 cells assessed as inhibition of cell proliferation at 10 to 100 uM after 72 hrs by CellTiter blue-reagent based assay; type: functional
# Histone deacetylase 8 = target: T3, Histone deacetylase 8 (Homo sapiens, UniProt Q9BY41)
# T3 sequence (Q9BY41 whole entry): T2 sequence (whole entry)
# T-24 [4] = assay: Antiproliferative activity against human T24 cells assessed as inhibition of cell proliferation at 10 to 100 uM after 72 hrs by CellTiter blue-reagent based assay; type: functional
# [5] = (§1) Cytotoxicity against human HepaRG cells assessed as cell viability at 100 uM after 24 hrs by CellTiter blue-reagent based assay relative to control; settings: HepaRG cells, read-out: Activity
# MDA-MB-231 [6] = assay: Antiproliferative activity against human MDA-MB-231 cells assessed as inhibition of cell proliferation at 10 to 100 uM after 72 hrs by CellTiter blue-reagent based assay; type: functional
# [7] = target: Histone deacetylase 4 (Homo sapiens) (UniProt P56524); assay: Inhibition of recombinant N-terminal GST/His-tagged human HDAC4 (627 to 1084 residues) expressed in baculovirus expression system at 10 uM using fluorogenic ZMTFAL as substrate incubated for 90 mins by fluorescence assay relative to control
# CYP1A2 = target: T4, CYP1A2 (Homo sapiens, UniProt P05177); assay: Inhibition of human CYP1A2 in human liver microsomes at 10 uM relative to control; type: ADME
# T4 sequence (P05177 whole entry): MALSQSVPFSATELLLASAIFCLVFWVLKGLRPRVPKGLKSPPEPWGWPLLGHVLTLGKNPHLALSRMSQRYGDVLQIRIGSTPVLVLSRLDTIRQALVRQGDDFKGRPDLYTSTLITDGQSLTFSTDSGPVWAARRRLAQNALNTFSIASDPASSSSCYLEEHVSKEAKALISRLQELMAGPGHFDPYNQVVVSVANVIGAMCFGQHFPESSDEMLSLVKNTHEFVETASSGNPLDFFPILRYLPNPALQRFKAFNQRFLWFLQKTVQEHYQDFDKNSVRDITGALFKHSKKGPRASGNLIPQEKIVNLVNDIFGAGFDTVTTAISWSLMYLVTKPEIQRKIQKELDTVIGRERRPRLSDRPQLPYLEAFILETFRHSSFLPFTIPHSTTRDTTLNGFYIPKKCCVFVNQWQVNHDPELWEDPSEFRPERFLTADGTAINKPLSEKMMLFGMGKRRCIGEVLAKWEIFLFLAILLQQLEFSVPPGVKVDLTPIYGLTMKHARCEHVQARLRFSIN
# [8] = Stability in human liver microsomes assessed as compound remaining at 2 uM after 40 mins by LC-MS/MS analysis; type: ADME, Microsome; settings: read-out: Stability
# CYP2D6 = CYP2D6 (Homo sapiens, UniProt P10635); assay: Inhibition of human CYP2D6 in human liver microsomes at 10 uM relative to control; type: ADME
# [9] = Intrinsic clearance in human liver microsomes at 2 uM by LC-MS/MS analysis; type: ADME, Microsome
# HepaRG = assay: as §1; settings: heparg, 24 h, 100 µM
# CYP2C19 = CYP2C19 (Homo sapiens, UniProt P33261); assay: Inhibition of human CYP2C19 in human liver microsomes at 10 uM relative to control; type: ADME
# CYP3A4 = CYP3A4 (Homo sapiens, UniProt P08684); assay: Inhibition of human CYP3A4 in human liver microsomes at 10 uM relative to control; type: ADME
# [10] = Drug metabolism in human liver microsomes assessed as 4-[(5,5-Dioxido-10H-phenothiazin-10-yl)methyl]-N-hydroxybenzamide formation at 2 uM after 40 mins by LC-MS/MS analysis; type: ADME, Microsome
# CYP2C9 = CYP2C9 (Homo sapiens, UniProt P11712); assay: Inhibition of human CYP2C9 in human liver microsomes at 10 uM relative to control; type: ADME
# [11] = Half life in human liver microsomes at 2 uM by LC-MS/MS analysis; type: ADME, Microsome
# [12] = Drug metabolism in human liver microsomes assessed as N-Hydroxy-4-[(5-oxido-10H-Phenothiazin-10-yl)methyl]-benzamide formation at 2 uM after 40 mins by LC-MS/MS analysis; type: ADME, Microsome
# [13] = Drug level in human liver microsomes treated with 2 uM 4-[(10H-Phenothiazin-10-yl)methyl]-N-hydroxybenzamide assessed as compound formation after 40 mins by LC-MS/MS analysis; type: ADME, Microsome
# T-24 [14] = assay: Induction of apoptosis in human T24 cells at 1 to 10 uM after 48 hrs by propidium iodide-staining based FACS analysis; type: functional, cell-based
# MDA-MB-231 [15] = assay: Induction of apoptosis in human MDA-MB-231 cells at 1 to 10 uM after 48 hrs by propidium iodide-staining based FACS analysis; type: functional, cell-based
# HL-60 = assay: Antiproliferative activity against human HL60 cells after 72 hrs by CellTiter blue-reagent based assay; type: functional, cell-based
# THP-1 = assay: Antiproliferative activity against human THP1 cells after 72 hrs by CellTiter blue-reagent based assay; type: functional, cell-based
# MCF7 = assay: Antiproliferative activity against human MCF7 cells after 72 hrs by CellTiter blue-reagent based assay; type: functional, cell-based
# Chain of Histone deacetylase 1 (Q13547 whole entry): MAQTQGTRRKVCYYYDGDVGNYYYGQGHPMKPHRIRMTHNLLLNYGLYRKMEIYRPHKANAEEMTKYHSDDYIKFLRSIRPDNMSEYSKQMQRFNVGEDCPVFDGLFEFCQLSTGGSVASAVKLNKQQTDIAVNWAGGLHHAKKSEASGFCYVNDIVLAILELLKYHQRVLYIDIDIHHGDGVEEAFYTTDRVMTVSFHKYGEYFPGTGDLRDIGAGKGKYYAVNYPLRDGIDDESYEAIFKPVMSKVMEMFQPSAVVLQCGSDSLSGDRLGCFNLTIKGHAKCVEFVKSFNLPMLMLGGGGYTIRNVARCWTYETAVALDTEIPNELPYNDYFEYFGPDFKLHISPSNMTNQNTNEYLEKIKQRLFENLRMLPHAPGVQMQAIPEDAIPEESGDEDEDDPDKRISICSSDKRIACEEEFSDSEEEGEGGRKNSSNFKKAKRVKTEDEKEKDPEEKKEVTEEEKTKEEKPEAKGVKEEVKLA
# Chain of Histone deacetylase 4 (Homo sapiens) (P56524 whole entry, the tested form may be a part): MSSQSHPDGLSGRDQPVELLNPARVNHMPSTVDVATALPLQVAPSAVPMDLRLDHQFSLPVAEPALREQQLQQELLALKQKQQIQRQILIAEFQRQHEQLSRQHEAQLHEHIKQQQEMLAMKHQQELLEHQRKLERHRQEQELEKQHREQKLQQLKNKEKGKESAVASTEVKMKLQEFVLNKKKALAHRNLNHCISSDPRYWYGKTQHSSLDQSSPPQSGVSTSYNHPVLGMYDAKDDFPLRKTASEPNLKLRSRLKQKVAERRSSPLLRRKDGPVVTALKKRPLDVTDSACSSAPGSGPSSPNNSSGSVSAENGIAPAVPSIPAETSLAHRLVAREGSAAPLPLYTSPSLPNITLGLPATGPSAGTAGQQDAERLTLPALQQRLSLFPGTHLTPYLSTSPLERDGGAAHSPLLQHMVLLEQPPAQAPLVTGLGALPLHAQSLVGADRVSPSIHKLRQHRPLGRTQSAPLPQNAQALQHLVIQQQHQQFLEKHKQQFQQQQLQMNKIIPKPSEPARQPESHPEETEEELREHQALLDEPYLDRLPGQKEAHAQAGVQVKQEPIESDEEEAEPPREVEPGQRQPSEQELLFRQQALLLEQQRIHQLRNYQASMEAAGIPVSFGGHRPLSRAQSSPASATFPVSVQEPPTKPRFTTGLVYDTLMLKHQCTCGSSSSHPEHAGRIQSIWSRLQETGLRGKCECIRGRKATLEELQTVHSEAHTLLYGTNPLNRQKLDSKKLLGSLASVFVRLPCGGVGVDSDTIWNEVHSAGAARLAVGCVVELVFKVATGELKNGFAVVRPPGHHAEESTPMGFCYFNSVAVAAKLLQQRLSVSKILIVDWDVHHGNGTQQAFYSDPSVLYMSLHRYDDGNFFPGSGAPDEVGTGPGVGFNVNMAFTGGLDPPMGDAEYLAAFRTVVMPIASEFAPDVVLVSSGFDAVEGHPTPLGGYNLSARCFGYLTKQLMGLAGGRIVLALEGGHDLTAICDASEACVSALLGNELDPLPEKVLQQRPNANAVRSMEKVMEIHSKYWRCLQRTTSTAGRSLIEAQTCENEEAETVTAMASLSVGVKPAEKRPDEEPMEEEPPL
# Chain of CYP2C19 (P33261 whole entry): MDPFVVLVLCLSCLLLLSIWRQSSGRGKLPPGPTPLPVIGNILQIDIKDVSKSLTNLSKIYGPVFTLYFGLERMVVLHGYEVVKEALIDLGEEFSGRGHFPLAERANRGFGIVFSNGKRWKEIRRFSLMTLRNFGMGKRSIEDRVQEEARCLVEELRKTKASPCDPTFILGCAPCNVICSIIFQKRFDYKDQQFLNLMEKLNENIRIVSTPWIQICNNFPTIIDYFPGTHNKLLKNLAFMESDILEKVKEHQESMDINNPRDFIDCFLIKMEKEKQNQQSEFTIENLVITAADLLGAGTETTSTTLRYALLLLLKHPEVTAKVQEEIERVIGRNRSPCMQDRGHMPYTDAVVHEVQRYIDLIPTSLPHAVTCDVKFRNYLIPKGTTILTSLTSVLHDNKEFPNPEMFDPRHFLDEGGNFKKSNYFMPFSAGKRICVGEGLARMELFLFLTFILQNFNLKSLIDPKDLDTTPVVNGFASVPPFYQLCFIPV
# Chain of CYP2D6 (P10635 whole entry): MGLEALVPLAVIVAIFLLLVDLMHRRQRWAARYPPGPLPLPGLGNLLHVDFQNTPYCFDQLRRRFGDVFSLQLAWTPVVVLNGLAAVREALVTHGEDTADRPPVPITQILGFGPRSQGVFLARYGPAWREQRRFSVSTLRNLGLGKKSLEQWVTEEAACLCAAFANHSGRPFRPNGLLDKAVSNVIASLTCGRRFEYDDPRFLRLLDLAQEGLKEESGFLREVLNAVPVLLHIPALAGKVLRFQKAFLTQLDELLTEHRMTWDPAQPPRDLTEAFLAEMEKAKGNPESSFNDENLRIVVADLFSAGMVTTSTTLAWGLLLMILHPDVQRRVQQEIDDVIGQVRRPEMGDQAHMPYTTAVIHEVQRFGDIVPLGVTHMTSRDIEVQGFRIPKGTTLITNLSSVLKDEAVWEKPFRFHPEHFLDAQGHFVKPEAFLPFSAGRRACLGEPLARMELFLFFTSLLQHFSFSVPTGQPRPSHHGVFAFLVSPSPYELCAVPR
# Chain of CYP3A4 (P08684 whole entry): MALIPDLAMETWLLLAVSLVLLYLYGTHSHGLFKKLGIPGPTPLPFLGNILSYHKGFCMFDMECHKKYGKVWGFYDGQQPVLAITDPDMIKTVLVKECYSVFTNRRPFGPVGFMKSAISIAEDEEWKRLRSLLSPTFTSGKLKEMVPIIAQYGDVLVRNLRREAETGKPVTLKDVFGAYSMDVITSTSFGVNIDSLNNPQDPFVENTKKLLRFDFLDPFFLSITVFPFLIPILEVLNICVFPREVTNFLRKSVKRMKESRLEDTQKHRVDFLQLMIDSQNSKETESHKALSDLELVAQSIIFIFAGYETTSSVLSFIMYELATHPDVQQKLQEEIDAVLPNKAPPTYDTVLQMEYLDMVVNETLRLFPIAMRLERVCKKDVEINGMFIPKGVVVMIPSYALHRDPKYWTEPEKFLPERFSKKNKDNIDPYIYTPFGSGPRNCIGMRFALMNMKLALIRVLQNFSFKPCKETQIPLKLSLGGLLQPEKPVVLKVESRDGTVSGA
# Chain of CYP2C9 (P11712 whole entry): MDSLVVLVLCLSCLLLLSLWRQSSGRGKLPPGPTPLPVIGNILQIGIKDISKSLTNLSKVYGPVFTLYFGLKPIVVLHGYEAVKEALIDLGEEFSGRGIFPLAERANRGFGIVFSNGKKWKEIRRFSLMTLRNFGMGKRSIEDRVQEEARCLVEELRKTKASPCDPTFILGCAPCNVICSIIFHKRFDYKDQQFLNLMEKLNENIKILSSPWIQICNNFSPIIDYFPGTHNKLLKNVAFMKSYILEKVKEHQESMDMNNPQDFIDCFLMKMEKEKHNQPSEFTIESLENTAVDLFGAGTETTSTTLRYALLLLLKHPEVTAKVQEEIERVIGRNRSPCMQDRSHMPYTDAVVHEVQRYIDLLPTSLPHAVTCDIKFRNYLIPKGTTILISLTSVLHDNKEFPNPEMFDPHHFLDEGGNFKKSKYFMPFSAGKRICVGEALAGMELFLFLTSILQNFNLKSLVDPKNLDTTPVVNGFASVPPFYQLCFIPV
smiles,measurement,setting,value
O=C(NO)c1ccc(CN2c3ccccc3Sc3ccncc32)cc1,IC50,[1],7 nM
O=C(NO)c1ccc(CCN2c3ccccc3Sc3ccccc32)cc1,IC50,[1],136 nM
Cc1nc2c(s1)Sc1ccccc1N2Cc1ccc(C(=O)NO)cc1,IC50,[1],37 nM
CN1CCC2=C(C1)N(Cc1ccc(C(=O)NO)cc1)c1ccccc1S2,inhibition,[2],66%
same,IC50,[1],32 nM
same,IC50,Histone deacetylase 1,980 nM
O=C(NO)c1ccc(CN2N=C(Cl)C=C3Sc4ccccc4N=C32)cc1,IC50,[1],115 nM
O=C(NO)c1ccc(CN2c3ccccc3Sc3nccnc32)cc1,IC50,[1],17 nM
O=C(NO)c1ccc(CN2c3ccccc3Sc3cc(Cl)nnc32)cc1,IC50,[1],18 nM
CCSc1ccc2c(c1)N(Cc1ccc(C(=O)NO)cc1)c1ccccc1S2,IC50,[1],31 nM
same,IC50,Histone deacetylase 1,7200 nM
O=C(NO)c1ccc(CN2c3ccccc3Sc3cccc(Cl)c32)cc1,IC50,[1],16 nM
same,IC50,Histone deacetylase 1,5760 nM
O=C(NO)c1ccc(CN2c3ccncc3Sc3ncccc32)cc1,Activity,T-24 [3],inactive
same,inhibition,Huh-7,Active
same,IC50,Histone deacetylase 8,2000 nM
same,inhibition,T-24 [4],Active
same,"viability at 24 h, 100 µM",[5],80%
same,inhibition,MDA-MB-231 [6],Active
same,inhibition,[7],< 20%
same,IC50,[1],12 nM
same,IC50,Histone deacetylase 1,3340 nM
O=C(NO)c1ccc(CN2c3ccccc3Sc3ccccc32)cc1,inhibition at 10 µM,CYP1A2,20%
same,Activity,T-24 [3],inactive
same,"remaining at 40 min, 2 µM",[8],77%
same,inhibition at 10 µM,CYP2D6,45.4%
same,IC50,Histone deacetylase 8,1480 nM
same,CLH,[9],14 µL/min/mg
same,Activity,HepaRG,Non-Toxic
same,inhibition at 10 µM,CYP2C19,36.4%
same,inhibition at 10 µM,CYP3A4,24.3%
same,Drug metabolism,[10],Metabolite_Detected
same,inhibition at 10 µM,CYP2C9,24.4%
same,t1/2,[11],1.95 h
same,inhibition,[7],< 20%
same,Drug metabolism,[12],Metabolite_Detected
same,IC50,Histone deacetylase 1,5080 nM
O=C(NO)c1ccc(CN2c3ccccc3Sc3ccc(Cl)cc32)cc1,IC50,[1],12 nM
same,IC50,Histone deacetylase 1,2950 nM
O=C(NO)c1ccc(CN2N=CC=C3Sc4ccccc4N=C32)cc1,IC50,[1],19 nM
O=C(NO)c1ccc(CN2c3ccncc3Sc3ccncc32)cc1,IC50,[1],9 nM
O=C(NO)c1ccc(CN2c3ccccc3Sc3ccnnc32)cc1,IC50,[1],11 nM
COc1ccc2c(c1)N(Cc1ccc(C(=O)NO)cc1)c1ccccc1S2,IC50,[1],10 nM
same,IC50,Histone deacetylase 1,2070 nM
O=C(NO)c1ccc(CN2c3ccccc3[S+]([O-])c3ccccc32)cc1,IC50,[1],77 nM
same,IC50,Histone deacetylase 1,6810 nM
same,Drug uptake,[13],Active
O=C(CCCCCCC(=O)Nc1ccccc1)NO,Activity,T-24 [14],Active
same,Activity,MDA-MB-231 [15],Active
same,Activity,HL-60,Active
same,Activity,THP-1,Active
same,Activity,MCF7,Active
O=C(NO)c1ccc(CN2c3ccccc3S(=O)(=O)c3ccccc32)cc1,IC50,Histone deacetylase 1,3990 nM
same,Drug uptake,[13],Active
O=C(NO)c1ccc(CN2c3cccnc3Sc3cccnc32)cc1,IC50,[1],14 nM
O=C(CCCCCCC(=O)Nc1ccc([C@H]2O[C@@H](CSc3nc(-c4ccccc4)c(-c4ccccc4)o3)C[C@@H](c3ccc(CO)cc3)O2)cc1)NO [TUBACIN],IC50,Histone deacetylase 1,1010 nM
O=C(NO)c1ccc(N2c3ccccc3Sc3ccccc32)cc1,IC50,[1],2670 nM
O=C(NO)c1ccc(CN2c3ccccc3Sc3ccc(C(F)(F)F)cc32)cc1,IC50,[1],25 nM
same,IC50,Histone deacetylase 1,7490 nM
Cn1c(=O)c2c(ncn2C)n(C)c1=O [CAFFEINE],CLH,[9],4 µL/min/mg
same,t1/2,[11],6.22 h
